Here are results for three compounds from PMC11264596, “Auxin-mediated regulation of susceptibility to toxic metabolites, c-di-GMP levels, and phage infection in the rhizobacterium Serratia plymuthica” (mSystems, 2024).

Broadly, the Kd is the free concentration of one partner at which half of the binding sites on the other are occupied at equilibrium, for simple one-to-one binding. A lower Kd goes with a tighter complex.

This experiment deals with T1, TrpRA153 (AWY96_RS12805) (Serratia plymuthica, UniProt A0A2X4U763).
T1 construct: gene trpR
In words: isothermal titration calorimetry. It is filed as binding. (In general: In ITC the heat of successive injections is recorded.)
`O=C(O)Cc1c[nH]c2ccccc12` [IAA, indole-3-acetic acid] had a Kd of 326 ± 30 µM. As for `N[C@@H](Cc1c[nH]c2ccccc12)C(=O)O` [L-Trp], the Kd stood at 91 ± 3 µM. On to `O=C(O)C(=O)Cc1c[nH]c2ccccc12` [IPA, indole-3-pyruvic acid], for which the Kd was 101 ± 7 µM.
